Source: patent publication US20090005395A1 (Solvay Pharmaceuticals, B.V., priority 2007, published 2009)
Like-named read-outs stand apart in the source and are kept apart here.

Experiments:
[1] = molecular target: PDE-III (Homo sapiens, UniProt Q14432); test: In vitro inhibition of phosphodiesterases (CEREP): PDE-III
[2] = Plasma pharmacokinetics of sildenafil and its N-oxide; format: in vivo; details: male, NMRI, mouse, mice; for Kp: brain, read-out: Brain/plasma ratio; for AUC: read-out: AUC0→end; for AUC(0-inf): Tend = ∞
Procedure: Liquid Chromatography-Tandem Mass Spectrometry (LC-MS/MS) was performed using a Sciex API4000 LC-MS/MS. […] Compound peak area was used for quantification. The calibration curves were fitted to the model y=A+Bx+Cx^2 (y is the peak area of the analyte, x is the nominal calibration level in ng/ml (plasma) or ng/g (brain), A is the intercept, B is the slope and C is the description of the curvature). 1/x^2 weighing was used. LC-MS/MS system performance was monitored using a reference solution injected at standard intervals. […] The Lower Limit Of Quantification (LLOQ) was established at 1.00 ng/ml and 5.00 ng/brain, for plasma and brain samples, respectively. Reversed phase HPLC was performed using gradient elution by a Hypersil BDS C18 100×4.6 mm 3 μm analytical column, with a temperature of 45° C. and a flow of 1.00 ml/min: […]

[3] = Plasma and brain concentrations of N-desmethylsildenafil (pilot experiment); format: in vivo, male NMRI mice; details: mice, i.v. or p.o.; for the N-oxide only observed after oral dosing
Procedure: Sildenafil and its N-oxide were analyzed in mouse plasma and brain samples using a generic bioanalytical method comprising protein precipitation and HPLC with MS/MS detection.
Sample preparation: Proteins in 100 μl plasma were precipitated with acetonitrile, and 5 μl samples of the obtained solution were analyzed. Complete brains were homogenized and centrifuged, and 10 μl samples of the supernatant were analyzed.
Liquid Chromatography-Tandem Mass Spectrometry (LC-MS/MS) was performed using a Sciex API4000 LC-MS/MS. Quantification of the samples was done using extracted calibration samples, treated the same as the study samples in the range of 1-5000 ng/ml and 5.0-5000 ng/brain for plasma and brains samples, respectively. Compound peak area was used for quantification. The calibration curves were fitted to the model y=A+Bx+Cx^2 (y is the peak area of the analyte, x is the nominal calibration level in ng/ml (plasma) or ng/g (brain), A is the intercept, B is the slope and C is the description of the curvature). 1/x^2 weighing was used. LC-MS/MS system performance was monitored using a reference solution injected at standard intervals. The method use for testing was not validated in detail, therefore the reported concentrations were good estimations. The Lower Limit Of Quantification (LLOQ) was established at 1.00 ng/ml and 5.00 ng/brain, for plasma and brain samples, respectively. […]

[4] = system: PDE-IV; test: In vitro inhibition of phosphodiesterases (CEREP): PDE-IV; details: human U-937 monocytes
[5] = system: PDE-I; test: In vitro inhibition of phosphodiesterases (CEREP): PDE-I; details: bovine brain
[6] = molecular target: PDE-II (Homo sapiens, UniProt O00408); test: In vitro inhibition of phosphodiesterases (CEREP): PDE-II
PDE-II, sequence (O00408 whole entry): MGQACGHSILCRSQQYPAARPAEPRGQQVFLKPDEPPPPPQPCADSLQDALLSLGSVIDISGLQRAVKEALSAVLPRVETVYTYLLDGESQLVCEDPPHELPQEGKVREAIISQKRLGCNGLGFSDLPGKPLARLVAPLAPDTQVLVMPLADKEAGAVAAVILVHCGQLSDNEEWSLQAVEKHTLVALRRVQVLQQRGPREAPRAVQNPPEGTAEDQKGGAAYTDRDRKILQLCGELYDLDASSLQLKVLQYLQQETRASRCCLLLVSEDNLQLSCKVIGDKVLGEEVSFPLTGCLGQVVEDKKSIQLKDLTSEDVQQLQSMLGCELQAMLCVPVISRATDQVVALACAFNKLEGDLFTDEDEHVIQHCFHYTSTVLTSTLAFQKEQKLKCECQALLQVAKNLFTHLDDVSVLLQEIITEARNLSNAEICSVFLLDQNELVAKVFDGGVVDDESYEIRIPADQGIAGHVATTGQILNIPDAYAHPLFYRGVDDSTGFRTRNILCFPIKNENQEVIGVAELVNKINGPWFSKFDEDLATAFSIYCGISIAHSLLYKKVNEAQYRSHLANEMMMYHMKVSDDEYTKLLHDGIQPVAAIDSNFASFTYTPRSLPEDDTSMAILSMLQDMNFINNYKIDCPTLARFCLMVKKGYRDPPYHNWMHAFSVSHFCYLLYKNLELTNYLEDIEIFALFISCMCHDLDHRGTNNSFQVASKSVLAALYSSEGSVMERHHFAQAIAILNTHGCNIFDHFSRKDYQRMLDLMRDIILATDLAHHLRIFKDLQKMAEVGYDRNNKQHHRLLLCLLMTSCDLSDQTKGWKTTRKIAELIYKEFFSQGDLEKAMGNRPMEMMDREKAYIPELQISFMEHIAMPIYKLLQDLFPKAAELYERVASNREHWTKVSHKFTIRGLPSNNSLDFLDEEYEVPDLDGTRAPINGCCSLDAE

PDE-III, sequence (Q14432 674-1093 limits assumed): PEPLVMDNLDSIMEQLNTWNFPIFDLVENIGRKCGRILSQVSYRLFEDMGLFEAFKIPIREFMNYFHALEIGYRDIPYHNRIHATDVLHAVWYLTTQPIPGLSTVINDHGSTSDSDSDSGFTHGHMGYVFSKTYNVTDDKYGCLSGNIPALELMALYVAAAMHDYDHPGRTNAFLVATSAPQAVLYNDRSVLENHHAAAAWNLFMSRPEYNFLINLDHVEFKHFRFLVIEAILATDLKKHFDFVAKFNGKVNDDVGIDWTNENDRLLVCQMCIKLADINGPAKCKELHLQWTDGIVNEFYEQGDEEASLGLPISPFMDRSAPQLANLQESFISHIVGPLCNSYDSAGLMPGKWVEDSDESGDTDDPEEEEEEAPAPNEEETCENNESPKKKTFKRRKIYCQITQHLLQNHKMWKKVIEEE

IC50 [1]: > 10 µM
Kp ([2]; iv, i.v. 1 mg/kg): 0.5
Kp ([2]; po, p.o. 10 mg/kg): 2.5
Tmax ([2]; iv, plasma, i.v. 1 mg/kg): 0 h
half-life ([2]; iv, plasma, i.v. 1 mg/kg): 0.4 h
AUC ([2]; iv, plasma, i.v. 1 mg/kg, Tend = 3 hrs): 125 ng·h/mL
AUC(0-inf) ([2]; iv, plasma, i.v. 1 mg/kg): 125 ng·h/mL
Cmax ([2]; iv, plasma, i.v. 1 mg/kg, extrapolated to T0 (time zero), read-out: Cmax (C0)): 495 ng/mL
Vd ([2]; plasma, iv, i.v. 1 mg/kg): 5 L/kg
clearance ([2]; plasma, iv, i.v. 1 mg/kg): 133 mL/min/kg
bioavailability ([2]; plasma, po, 10 mg/kg, i.v.): 1.5%
Tmax ([2]; po, plasma, p.o. 10 mg/kg): 1 h
half-life ([2]; po, plasma, p.o. 10 mg/kg): 5.1 h
AUC ([2]; po, plasma, p.o. 10 mg/kg, Tend = 24 hrs): 10.8 ng·h/mL
AUC(0-inf) ([2]; po, plasma, p.o. 10 mg/kg): 18.8 ng·h/mL
Cmax ([2]; po, plasma, p.o. 10 mg/kg, read-out: Cmax): 2.7 ng/mL
metabolism to N-desmethylsildenafil [3]: metabolized to N-desmethylsildenafil
pIC50 PDE-IV [4]: <5.0
pIC50 PDE-I [5]: 5.8
IC50 [6]: > 10 µM
Structure (SMILES): CCCc1nn(C)c2c(=O)[nH]c(-c3cc(S(=O)(=O)N4CC[N+](C)([O-])CC4)ccc3OCC)nc12 [Sildenafil-N-oxide, 1-[[3-(6,7-dihydro-1-methyl-7-oxo-3-propyl-1H-pyrazolo[4,3-d]pyrimidin-5-yl)-4-ethoxyphenyl]sulfonyl]-4-methyl-4-oxido-piperazine]
